Source: patent US20030180735A1, “Screening method” (priority 1999, published 2003)
“Also recorded” adds a separate entry of the source.

Key:
Format in all cases: cell-based
[1] = system: primary human neutrophils; test: Neutrophil survival/viability by MTT assay
Protocol: primary human neutrophils are isolated and purified from peripheral blood of normal healthy individuals. Neutrophils are resuspended in serum containing culture medium together with various amounts of GM-CSF at a density of 2×10^6/ml, with 100 μl plated into a 96 well plate and cultured for 18 h at 37° C. After this time 10 μl of MTT (5 mg/ml) is added to the cultures and incubated for a further 4 h at 37° C. before solubilisation of the purple coloured formazan with acidic isopropanol. Optical densities are read at 570 nm using a plate reader.
A time course of GM-CSF additions was carried out to neutrophils in order to determine up to what stage GM-CSF can induce survival in neutrophils. primary human neutrophils are isolated and purified from peripheral blood of normal healthy individuals. Neutrophils are resuspended in serum containing culture medium at a concentration of 2×10^6/ml, with 100 μl/well plated into a 96 well plate and culture at 37° C. commenced. At the indicated time points GM-CSF (50U/ml) was added to the neutrophils and culture continued until 20 h post initiation of culture. After this time, 10 μl of MTT (5 mg/ml) was added to the cultures and incubated for a further 4 h at 37° C. before solubilisation of the purple coloured formazan with acidic isopropanol. Optical densities were read at 570 nm using a plate reader. […] However, if administration of the cytokine is delayed for 20 h post isolation, the protective effect is zero in 24 h cultures.
We performed timed additions of anti-GM-CSF antibody to neutrophils in order to determine how immediate the anti-apoptotic effects induced by GM-CSF occur. primary human neutrophils are isolated and purified from peripheral blood of normal healthy individuals. […] Optical densities are read at 570 nm using a plate reader. […]
In our system, cells are cultured in 96 well plates in 100 μl of culture medium and are treated in ways known to induce apoptosis. […] At the end of the incubation period the converted dye is solubilised with acidic-isopropanol (0.04N HCL. Absorbance of converted dye is measured at a wavelength of 570 nm.

[2] = system: primary human neutrophils; test: Neutrophil gene expression, Incyte LifeGrid microarray
Protocol: Primary human neutrophils are isolated and purified from peripheral blood of normal healthy individuals. Neutrophils are resuspended in serum containing culture medium together with GM-CSF (50U) at a concentration of 2×10^6/ml, and cultured for 0 h (control), 2 h, 4 h and 6 h at 37° C. After these times, total cellular RNA is extracted and this used as the starting material for analysis of gene expression changes.
Primary human neutrophils are isolated and purified from peripheral blood of normal healthy individuals. Neutrophils are resuspended in serum containing culture medium together with GM-CSF (50U) at a concentration of 2×10^6/ml, and cultured for 0 h (control), 2 h, 4 h and 6 h at 37° C. After these times, total cellular RNA is extracted and this used as the starting material for analysis of gene expression changes using the Incyte “LifeGrid” microarray. Following cluster analysis, a cluster of genes are identified that contained several genes involved in neutrophil survival and whose transcription is up—regulated upon GM-CSF treatment. This cluster, which included BcI2-A1 (a ‘known’ antiapoptotic neutrophil BCL2 family member) is termed the ‘survival’ cluster (See FIG. 14). Among these genes, one group that could be clearly identified are those genes whose protein products are involved in protecting the cell against an increased oxidative environment (FIG. 14). […] Since all these gene products are attenuators of the oxidative cellular response it is indicative that GM-CSF protects the cell by reducing the harmful effects of reactive oxygen species. The corollary therefore is that spontaneous apoptosis must be due to an uncontrolled oxidative environment within the cell. Furthermore, this reaffirms that the neutrophils response to reactive oxidative species is […] of the glutathione system.
Methodology is as described by manufacturer, for Human LifeGrid™ arrays. Essentially, total cellular RNA (1 μg to 20 μg) or polyA+ mRNA (100 ng to 5 μg) is incubated with an oligo (dT) primer. Primed RNA is reverse transcribed to first stand cDNA in a reaction containing M-MLV reverse transcriptase (RT; alternatively Superscript II is used (Life Sciences)), RT buffer, dNTPs and [α-^33P] dCTP (2000-4000 Ci/mmol) at 42° C. for 1 to 5 h.
Methodology is as described by manufacturer, for Human LifeGrid™ arrays.

HeLa cells = settings: agent plus cisplatin 10 μg/ml, overnight, crystal violet
Protocol: In our system, cells are cultured in 96 well plates in 100 μl of culture medium and are treated in ways known to induce apoptosis. Following an indicated period of time, 10 μl MTT stock solution (5 mg/mi) is added to each culture being assayed and incubated at 37° C. for 4 h. At the end of the incubation period the converted dye is solubilised with acidic-isopropanol (0.04N HCL. Absorbance of converted dye is measured at a wavelength of 570 nm.
The following example describes a method to analyse viability of adherent cells, such as HeLa, using chemical stain Crystal Violet. Adherent cells are cultured in the presence of known agents to induce/ modulate the apoptotic process. After a suitable period of time, supernatants are removed by inverting and flicking the plate. Wells are washed twice with PBS and remaining adherent cells are fixed with 100% EtOH and air-dried. To each well is added 100 μl of 1% aqueous Crystal Violet Solution (Sigma). Plates are then incubated at room temperature (RT) for 5 min before washing in tap water. Wells are solubilised in 33% acetic acid and optical density is measured at 570 nm using a plate reader.
HeLa cells are plated in full culture medium at a concentration of 2×10^4 cells/well of 96 well plate. […] Cells are cultured overnight at 37° C. before analysing for apoptosis using either MTT or crystal violet.
HeLa cells are plated in full culture medium at a concentration of 2×10^4 cells/well of 96 well plate. […] Cells are cultured overnight at 37° C. before analysing for apoptosis using crystal violet.
HeLa cells are plated into 96 well plate at a concentration of 2×10^4/well and allowed to adhere for 4 hours Culture medium is then replaced with fresh medium containing the indicated concentrations of TNFα together with 5 μg/ml cycloheximide. Cultures are maintained for a further 18 hours, before measuring apoptosis with crystal violet and reading @570 nm in a plate reader.
Cells are cultured for a further 18 h before staining the remaining adherent cells with crystal violet and measuring absorbance at 570 nm.

[3] = GM-CSF (50U), vs control levels

For “GM-CSF: well-characterised neutrophil growth/survival factor (cytokine)”, the “relation of survival to GM-CSF concentration (MTT)” value ([1]; 18 h culture) was “direct correlation between survival and concentrations of GM-CSF”, the “protective effect when GM-CSF addition is delayed 20 h post isolation” value ([1]; GM-CSF 50U/ml, 24 h cultures) was “zero and not sufficient to mediate survival” and the expression of catalase [2, 3] was “increased expression”. For the same compound, the expression of ferritin [2, 3] was “increased expression”, the “expression of mitochondrial superoxide dismutase” value [2, 3] was “increased expression” and the “transcription of fructose 1,6 bisphosphatase” value ([2]; GM-CSF, 6 hour period) was “upregulates”. For the same compound, the “transcription of phosphofructokinase 1” value ([2]; GM-CSF, 6 hour period) was “down regulated”.

In the case of `CCCCS(=N)(=O)CCC(N)C(=O)O` (stereo not shown) [BSO, buthionine sulphoximine], the “effect on GM-CSF mediated survival” value ([1]; BSO 1 or 4 mM, GM-CSF 5 u/ml, 18 h) is reported as “did not impact on GM-CSF to mediate survival” and the “HeLa cell sensitivity to cisplatin” value (HeLa cells) is reported as “increase the sensitivity; also recorded: dramatically sensitises HeLa cell towards cisplatin”.

`CC(=O)N[C@@H](CS)C(=O)O` [NAC] was tested, and the “HeLa cell sensitivity to cisplatin” value (HeLa cells) was “decreased; also recorded: desensitised towards cisplatin”.
